In patent US6686145B1, “Rigidized trimethine cyanine dyes” (Carnegie Mellon University, priority 1997, dated 2004):
Blank lines part the entries; values can stand above or below the compound they belong to. Where no end group is shown, it is not given here. [ ]: non-standard residue; d: D form. Compound III = 6,7,9,10-tetrahydro-2-carboxymethyl-14-sulphonato-16,16,18,18-tetramethyl-7aH,8aH-bisindolinium[3,2-a,3'2'-a']pyrano[3,2-c,5,6-c']dipyridin-5-ium dye (NHS ester used for labelling); {C7NH2-CompoundIII} = C7 amino linker labelled with Compound III NHS ester; pY = N[C@@H](Cc1ccc(OP(=O)(O)O)cc1)C(=O)O

Columns and labels:
[1] = Comparison of spectral properties of rigidized Cy3 and open chain Cy3 dyes; format: physicochemical
Text: The spectral properties of the rigidized dye were compared with the known open chain Cy3.18.OH and Cy3.10.OH dyes (FIG. 2). The absorption maxima of the rigid dye shifted to the red by 12 nm in methanol and as expected it is 10-12 time brighter that the non-rigidized indocyanines.

[2] = target: Grb2 glutathione-S-transferase fusion protein (Homo sapiens, UniProt P62993); experiment: Protein:peptide polarization binding assay; settings: non-specific binding defined with 100 μM unlabelled peptide, 60 minutes
Method: A peptide of sequence E-pY-I-N-Q-S-V-P-K (E9K) was prepared by solid phase synthesis on an Applied Biosystems 431A peptide synthesizer using standard methods and materials. An excess of 6,7,9,10-tetrahydro-2-carboxymethyl-14-sulphonato-16,16,18,18-tetramethyl-7aH,8aH-bisindolinium[3,2-a;3′2′-a′]pyrano[3,2-c;5,6-c′]dipyridin-5-ium (Compound III), N-hydroxysuccinimide ester was coupled in DMSO in the presence of diisopropylethylamine to the free N-terminus of the protected peptide whilst still attached to the solid phase. After deprotection for two hours, the crude labelled peptide was purified by reverse phase HPLC, using a gradient from water/0.1%TFA to water:acetonitrile (40:60)/0.1%TFA over 60 minutes.
Various concentrations of Grb2 glutathione-S-transferase fusion protein and E9K labelled with Compound III in 20 mM MOPS pH7.4/10 mM DTT/005% Tween 20 were incubated in a final volume of 150 μl in black 96-well microplates (Dynatech) for 60 minutes. […] Polarization values were read on a Fluorolite FPM2™ plate reader (Jolley Research and Consulting Inc.) using a 530DF30 filter for excitation and 590DF45 filter for emission.

[3] = test system: complementary probe oligonucleotide; experiment: Nucleic acid FRET hybridization assay; format: binding; settings: 560 nm excitation, 670 nm emission
Method: The oligonucleotides were deprotected for 17 hours at 40° C. and purified by reverse phase HPLC using a C18 column and a 40% TEAA/acetonitrile gradient. The desired peaks were collected, freeze dried and the samples were resuspended in sterile H2O.
Amino modified target and probe oligonucleotides were incubated with a 10-fold molar excess of 6,7,9,10-tetrahydro-2-carboxymethyl-14-sulphonato-16,16,18,18-tetramethyl-7aH,8aH-bisindolinium[3,2-a;3′2′-a′]pyrano[3,2-c;5,6-c′]dipyridin-5-ium (Compound III), N-hydroxysuccinimide ester and Cy5 NHS-ester dye (Amersham Pharmacia Biotech) respectively, in 0.1M sodium bicarbonate buffer (pH9), overnight at 22° C. The following morning, the oligonucleotides were ethanol precipitated and the resulting pellets were resuspended in H2O. […] Residues were resuspended into H2O and concentration of recovered material was determined.
Wells of a black, streptavidin coated 96-well plate were coated with either unlabelled or Compound III-labelled target oligonucleotides (20 pmol/well diluted in 100 μl PBS/1 MgCl2) for 120 minutes at ambient temperature. […] Finally, wells were washed vigorously with PBS and fluorescence intensity was measured on a fluorescence plate reader using a 560 nm excitation filter and a 670 nm emission filter (FIG. 7).

[4] = test system: NF-kB-specific dsDNA; experiment: Protein:DNA direct intensity binding assay; settings: competitor 200 pmol/well (40 fold molar excess for p65) versus p65GST
Method: All HPLC purified oligonucleotides were obtained from Genosys Biotechnologies Ltd. Equimolar amounts of a biotinylated coding strand (5′ Biotin-[…] CCGCG 3′) and an unmodified non-coding strand (5′ […] 3′) specific for NF-kB were incubated together in a boiling water bath for 3 minutes and allowed to anneal by cooling over 2 hours.
Anti-GST antibody (3 mg/ml, 1.5 mg supplied/vial (0.5 ml) from Molecular Probes) was dialysed against 1 litre of 0.15M sodium chloride for 4 hours at room temperature and dialysis was continued overnight at 4° C. in a fresh solution of 0.15M sodium chloride. The following morning the antibody was dialysed against 1 litre of 0.1M sodium hydrogen carbonate for a maximum of 4 hours.
A 1 mg/ml solution of 6,7,9,10-tetrahydro-2-carboxymethyl-14-sulphonato-16,16,18,18-tetramethyl-7aH,8aH-bisindolinium[3,2-a;3′2′-a′]pyrano[3,2-c;5,6-c′]dipyridin-5-ium (Compound III), N-hydroxysuccinimide ester in DMSO was added gradually with stirring to the antibody at a ratio of 0.10 mg dye: 0.33 mg antibody. […]
Biotin-labelled NF-kB-specific dsDNA (2.5 pmol, diluted in 0.01 MMgCl2) was added to each well (final volume, 100 μl) of a 96-well streptavidin coated microplate (Boehringer Mannheim) and incubated at room temperature for 2 hours. […] The plate was read at Ex535/Em569 and Ex560/595 in the Biolumin 960 fluorescence microplate reader (Molecular Dynamics Inc.).

[5] = test system: NF-kB-specific double stranded (ds) DNA; experiment: Protein:DNA FRET binding assay; settings: competitor 200 pmol/well (10 fold molar excess for p65), Ex520/Em670
Method: All HPLC purified NF-kB-specific oligonucleotides were obtained from Genosys Biotechnologies Ltd: a coding strand modified with a 5′ terminal primary amine (5′ NH2-[…] 3′) and an unmodified non-coding strand (5′ […] 3′). A 10-fold molar excess of Cy-5-NHS ester dye (Amersham Pharmacia Biotech) was incubated with the coding strand, in 0.1M sodium bicarbonate buffer (pH9), overnight at 22° C. The following morning the oligonucleotide was ethanol precipitated and then resuspended in water. The labelled coding strand was purified by reverse phase HPLC using a C18 column and a 60% TEAA/acetonitrile gradient. The peak containing labelled oligonucleotide was freeze dried and resuspended in water.
NF-kB-specific double stranded (ds) DNA was generated by incubating together equimolar amounts of the Cy-5 labelled coding strand (5′ Cy5-[…] […] 3′) and the unmodified non-coding strand (5′ […] […] 3′) in a boiling water bath for 3 minutes and allowing to anneal by cooling over 2 hours.
NF-kB p65 protein ([…]) was diluted to 1000 μl in 0.01M phosphate buffered saline. […]
A black microtitre plate (Dynatech) was used for the FRET assay. […] The plate was read at Ex520/Em670 in the Biolumin 960 fluorescence microplate reader (Molecular Dynamics Inc.).

Compound: CC1(C)C2=C3C=C4C5=[N+](CCC4OC3CCN2c2ccc(CC(=O)O)cc21)c1ccc(CC(=O)O)cc1C5(C)C (centres unmarked) [Compound I, 6,7,9,10-Tetrahydro-2,14-carboxymethyl-16,16,18,18-tetramethyl-7aH,8aH-bisindolinium[3,2-a;3′2′-a′]pyrano[3,2-c;5,6-c′]dipyridin-5-ium]
QY (Φ) ([1]; dye in methanol): 0.8
λmax ([1]; dye in methanol): 565
absorption maxima shifted to the red ([1]; in methanol, versus open chain Cy3 dyes): 12 nm
brightness relative to the non-rigidized indocyanines ([1]; versus non-rigidized indocyanines): 10-12 time

Compound: Compound III-labelled peptide: peptide E-pY-I-N-Q-S-V-P-K (E9K) labelled at the free N-terminus with Compound III ({Compound III}-E[pY]INQSVPK)
binding to Grb2 protein as determined by change in polarization [2]: specific binding

Compound: Compound III-labelled target oligonucleotide: 5′ C7 amino-modified TAC CCA GAC GAG CAA-biotin 3′ labelled with Compound III NHS ester (DNA TACCCAGACGAGCAA; DNA, 5' {C7NH2-CompoundIII}, 3' {Biotin}, backbone not given here)
fluorescence signal (FRET) ([3]; incubated with Cy5-labelled probe): strong fluorescence signal
fluorescence signal (FRET) ([3]; incubated with unlabelled probe): low fluorescence signals

Next, values leading:

reduction of the total signal [4]: 25%
reduction of the total signal [5]: no effect
Compound: casein

reduction of the total signal [4]: approximately 90%
reduction of the total signal [5]: 40%
Compound: p65: NF-kB p65 protein, specific competitor
